# Reference: paper PMC12700550, “DLL4^+ neutrophils promote Notch1-mediated endothelial PANoptosis to exacerbate acute lung injury in sepsis” (The Journal of Clinical Investigation, 2025)
# Several values for one entry are separate records, joined by “and”; a condition that tells them apart may be missing. Equal values may be shown once.
# How the values were obtained:
# ZBP1 = ZBP1 protein in lungs of CLP mice, Western blot; assay type: in vivo, mouse; details: 10 mg/kg NDI, 20 h; for lung ZBP1 protein (Figure 5B): individual mice, 10 mg/kg
# Method: (§1) Sepsis was induced in mice by cecal ligation and puncture (CLP) as described previously ([45], [46]). Mice were anesthetized with isoflurane to a surgical plane and placed in a supine position. CLP was performed through a midline laparotomy. The abdomen was shaved and disinfected. Through a 2 cm midline incision, the cecum was exposed and then ligated with a 4-0 silk suture 1 cm proximal from the distal cecal extremity. For 20-hour CLP experiments, the cecum was punctured twice with a 22-gauge needle. A small amount of cecal content was extruded through both holes, and the ligated cecum was returned to the peritoneal cavity. The wound was closed in layers. For 10-day sepsis survival studies, the cecum was punctured once with a 22-gauge needle. A small amount of cecal content was extruded. Mice were allocated to the vehicle and adoptive transfer of DLL4^+ neutrophils or DLL4^– neutrophils groups. Adoptive transfer mice received a retro-orbital injection of 1 × 10^6 cells per mouse DLL4^+ neutrophils or DLL4^– neutrophils in […] phosphate-buffered saline (PBS) immediately after abdominal closure in both the 20-hour experiments and the survival study. Vehicle groups received an equivalent volume of PBS, while treatment groups received NDI 10 mg/kg in […] PBS via retro-orbital injection after CLP. This dose was chosen primarily on the basis of our laboratory’s prior experience, we have consistently used this dose in mouse CLP models with reproducible efficacy and without observable toxicity ([39], [44]). Sham-operated animals underwent a laparotomy without CLP. After closure, the mice received a subcutaneous injection of 0.5 mL of normal saline to overcome surgery-induced dehydration. […]
# PVECs and lung tissue were collected in previous steps. Whole-cell proteins were extracted, and the protein concentration was measured using an ABC protein assay kit (catalog 5000002, Bio-Rad). […] Bands were detected using an Odyssey FC Dual-Mode Imaging system 2800 (LI-COR).
# IL-6 = assay: Lung IL-6 mRNA, CLP mice; assay type: in vivo, mouse; details: 20 h; for lung IL-6 mRNA (Figure 6G): 10 mg/kg NDI, vs sham, individual mice
# Method: as §1, with “dehydration. For 20-hour experiments, animals were not injected with antibiotics; however, for survival studies, animals were given 0.5 mg per kg body weight imipenem (lot 4D21K05, WG Critical Care LLC) subcutaneously in 0.5 mL saline once at the end of CLP. All mice were subcutaneously injected with a single dose of 0.1 mg/kg buprenorphine after CLP.” for “dehydration.”
# C57BL/6 mice, CLP sepsis [1] = assay: Lung injury score (H&E), CLP mice; assay type: in vivo, mouse; details: 20 h; for lung injury score (Figure 6J): 10 mg/kg NDI, score 0 to 1, individual values
# Method: Sepsis was induced in mice by cecal ligation and puncture (CLP) as described previously ([45], [46]). Mice were anesthetized with isoflurane to a surgical plane and placed in a supine position. CLP was performed through a midline laparotomy. The abdomen was shaved and disinfected. Through a 2 cm midline incision, the cecum was exposed and then ligated with a 4-0 silk suture 1 cm proximal from the distal cecal extremity. […] A small amount of cecal content was extruded through both holes, and the ligated cecum was returned to the peritoneal cavity. The wound was closed in layers. […] A small amount of cecal content was extruded. […] Vehicle groups received an equivalent volume of PBS, while treatment groups received NDI 10 mg/kg in […] PBS via retro-orbital injection after CLP. This dose was chosen primarily on the basis of our laboratory’s prior experience, we have consistently used this dose in mouse CLP models with reproducible efficacy and without observable toxicity ([39], [44]). Sham-operated animals underwent a laparotomy without CLP. After closure, the mice received a subcutaneous injection of 0.5 mL of normal saline to overcome surgery-induced dehydration. […] All mice were subcutaneously injected with a single dose of 0.1 mg/kg buprenorphine after CLP. Lung tissues were fixed in 10% formalin before being embedded in paraffin. Blocks were cut into 5 μm sections and stained with H&E. Slides were evaluated under light microscopy to assess the degree of lung injury. Scoring was done using a system created by the American Thoracic Society ([47]). Scores ranged from 0 to 1 and were based on proteinaceous debris in the airspaces, the degree of septal thickening, and neutrophil infiltration in the alveolar and interstitial spaces. The average score per field was calculated at ×200 original magnification.
# C57BL/6 mice, CLP sepsis [2] = assay: 10-day survival, CLP mice; assay type: in vivo, mouse; details: 10 mg/kg NDI
# Method: as §1
# Data represented in the figures are expressed as mean ± SEM and were compared by 2-tailed Student’s t test for 2 groups or 1-way ANOVA using Student-Newman-Keuls post hoc analysis for multiple groups. Survival rates were analyzed by the Kaplan-Meier estimator and compared using a log-rank test. […]
# C57BL/6 mice, CLP sepsis [3] = details: mouse, in vivo, 10 mg/kg
# Method: as §1, with “CLP.” for “CLP. This dose was chosen primarily on the basis of our laboratory’s prior experience, we have consistently used this dose in mouse CLP models with reproducible efficacy and without observable toxicity ([39], [44]). Sham-operated animals underwent a laparotomy without CLP. After closure, the mice received a subcutaneous injection of 0.5 mL of normal saline to overcome surgery-induced dehydration.”
# [4] = DLL4^+ neutrophil-injected CLP mice, 10 mg/kg
sequence,measurement,setting,value
ECAGSPCHNGGTCEDGI [NDI],lung ZBP1 protein (Figure 5B),ZBP1; DLL4^+ neutrophils + CLP,0.846 and 0.9823 and 0.8189 and 0.8666 and 0.6492 and 0.9798 and 0.8814
same,effect on lung ZBP1 protein,ZBP1; DLL4^+ neutrophils/sepsis,effectively decreased ZBP1 expression
same,lung ZBP1 protein (Figure 5B),ZBP1; DLL4^– neutrophils + CLP,1.332 and 0.9583 and 0.9668
same,effect on lung IL-6 mRNA,IL-6; [4],"significantly decreased the mRNA expression of TNF-α, IL-6, and KC in lung tissues"
same,lung IL-6 mRNA (Figure 6G),IL-6; DLL4^+ neutrophils + CLP,1.4984 fold change and 1.1005 fold change and 1.349 fold change and 4.056 fold change and 2.97 fold change and 2.032 fold change and 0.08381 fold change and 1.663 fold change and 5.861 fold change and 2.132 fold change and 6.132 fold change
same,lung IL-6 mRNA (Figure 6G),IL-6; DLL4^– neutrophils + CLP,2.369 fold change and 4.979 fold change and 4.806 fold change and 5.561 fold change and 5.531 fold change and 4.244 fold change and 1.214 fold change and 2.2297 fold change and 4.655 fold change
same,effect on lung injury,"C57BL/6 mice, CLP sepsis [1]; [4]",significantly lower lung injury scores
same,lung injury score (Figure 6J),"C57BL/6 mice, CLP sepsis [1]; DLL4^+ neutrophils + CLP",0.52 and 0.49 and 0.54 and 0.51 and 0.53
same,lung injury score (Figure 6J),"C57BL/6 mice, CLP sepsis [1]; DLL4^– neutrophils + CLP",0.58 and 0.44 and 0.52 and 0.48 and 0.54
same,"survival rate, 10 days","C57BL/6 mice, CLP sepsis [2]; N = 20, PBS-injected 15%",75%
same,survival event code (Figure 6M),"C57BL/6 mice, CLP sepsis [2]; individual mice, code 0 stands at day 10, 1 at earlier days (meaning not given), 10 mg/kg",1 and 0
same,survival time (Figure 6M),"C57BL/6 mice, CLP sepsis [2]; no exogenous neutrophils, individual mice, event code in next endpoint, 10 mg/kg",3 days and 6 days and 10 days and 2 days and 4 days
same,adverse effects,"C57BL/6 mice, CLP sepsis [3]",lack of observed adverse effects in treated animals
